Tests used:
CaNT [1] = assay: Cytometric distribution of cell nuclei from CaNT tumors treated in mice with breathing air; format: functional, cell-based; conditions: Mus musculus
CaNT [2] = assay: Cytometric distribution of cell nuclei from CaNT tumors treated in mice with breathing carbogen; format: functional, cell-based; conditions: Mus musculus
CaNT [3] = assay: Cytometric distribution of cell nuclei from CaNT tumors treated in mice; format: functional, cell-based; conditions: Mus musculus
CaNT [4] = assay: Cytometric distribution of single cells from CaNT tumors treated in mice with breathing carbogen; format: functional, cell-based; conditions: Mus musculus
CaNT [5] = assay: Cytometric distribution of single cells from CaNT tumors treated in mice with breathing air; format: functional, cell-based; conditions: Mus musculus
CaNT [6] = assay: Cytometric distribution of single cells from CaNT tumors treated in mice; format: functional, cell-based; conditions: Mus musculus
[7] = Half life evaluated in plasma in vitro at 20 degree Centigrade; format: ADME, cell-free

Compound | Distribution (CaNT [1]) | Distribution (CaNT [2]) | Distribution (CaNT [3]) | Distribution (CaNT [4]) | Distribution (CaNT [5]) | Distribution (CaNT [6]) | half-life [7]
O=C1N[C@H]2[C@H](CS[C@H]2CCCCCn2ccnc2[N+](=O)[O-])N1 | 11.7% | 0.69% | 0.85% | 3.4% | 16.5% | 1.2% | 
O=C(CCCC[C@@H]1SC[C@@H]2NC(=O)N[C@@H]21)NCCNC(=O)Cn1ccnc1[N+](=O)[O-] |  |  |  |  |  |  | 120 min
